Data from patent US9480772B2, “Gel sheet containing lipid peptide gelator and polymeric compound” (NISSAN CHEMICAL INDUSTRIES, LTD., priority 2010, dated 2016).
Residues, ends and D or L forms follow the SMILES beside them. *: point of attachment. Palmitoyl = CCCCCCCCCCCCCCCC(=O)*

Test: Gel state after standing overnight and affinity with water (Example 1)
Format: physicochemical
Design: key to Affinity with water by addition of milliQ water: a sample ascertained to have the affinity with water is evaluated as ∘; a sample ascertained to have no affinity with water is evaluated as x
Description: N-Palmitoyl-Gly-His synthesized above was dissolved in a 50 mM phosphate buffer solution (pH 7.5) so as to give a concentration of 1% (w/w) in a closed system at 100° C. To the solution, gum arable (Wako Pure Chemical Industries, Ltd.) was added dropwise so as to give a concentration of 10% (w/w) so as to form gel. From the formed gel, 200 μl of the gel was taken and dropped onto a glass petri dish. The gel was left overnight and then observed. To the gel after standing overnight, milliQ water was dropped, and the affinity with water was observed. Also, PVA (manufactured by Wako Pure Chemical Industries, Ltd., n=1,500 to 1,800) at a concentration of 10% (w/w) was added dropwise, in place of the gum arabic, so as to form gel. Then, the gel was subjected to the same procedure, and the gel after standing overnight was observed.
For comparison, gum arable alone or PVA alone was used without using N-palmitoyl-Gly-His and was dropped onto a glass petri dish in a similar manner. Then, each sample was left overnight and then observed in a similar manner.
From the observation results, a sample ascertained to have the affinity with water is evaluated as ∘, and a sample ascertained to have no affinity with water is evaluated as x.

CCCCCCCCCCCCCCCC(=O)NCC(=O)N[C@@H](Cc1c[nH]cn1)C(=O)O [N-palmitoyl-Gly-His] (Palmitoyl-Gly-His-OH)
Change in gel state after standing overnight (200 μl dropped onto a glass petri dish, left overnight): White gel | Affinity with water by addition of milliQ water (gel after standing overnight, milliQ water dropped): ∘
